Source: patent US5574033A, “Heterocyclic compound and cardiotonic agent containing the same as effective component” (Zenyaku Kogyo Kabushiki Kaisha, priority 1991, dated 1996)

Tests used:
right atria = experiment: Pharmacological Test 1: spontaneous contraction of isolated right atria (chronotropic effect); design: species or system male Hartley guinea pig; settings: Cavia porcellus; 3×10^-5 M; percentage of atrial rate after injection, rate before injection = 100%; 30° C.
Procedure: (§1) Nos. of the compounds in the pharmacological tests 1 and 2 correspond to those in Examples referred to hereinafter.
(§2) A heart was removed from a male Hartley guinea pig (having a body weight of about 400 g or so) and a right atrium and papillary muscles of a right ventricle were separated from the removed heart. These preparations were suspended in 15 ml of Magnus' bath under load of 0.5 g (papillary muscles) or 1.0 g (right atria). Contraction of papillary muscles upon electric stimulation (1 Hz, 5 msec, 1.5×threshold voltage) and spontaneous contraction of the right atria were recorded through a transducer (manufactured by Orientec, T7-8-240) by a polygraph system (manufactured by NIHONKOHDEN, RMP-6008 and WT-685G).
(§3) Krebs-Henseleit solution was used as nutritive liquid bubbled with mixed gases of 95% O2 with 5% CO2 at 30° C. The value of inotropic effect is a percentage of increment of contractile force by samples when that by isoprotelenol (1×10^-8 M) is considered to be 100%. The value of chronotropic effect is a percentage of atrial rate after the injection of samples when the atrial rate before the injection is considered to be 100%.

[1] = test system: papillary muscles of a right ventricle; experiment: Pharmacological Test 1: contraction of isolated right ventricular papillary muscles upon electric stimulation (inotropic effect); design: species or system male Hartley guinea pig; settings: 3×10^-5 M; percentage of increment of contractile force, isoprotelenol (1×10^-8 M) = 100%; 1 Hz stimulation, 30° C.
Procedure: as §1, §2, §3

| Structure (SMILES) | activity at 30 µM (right atria) | Inotropic Effect [1] |
| --- | --- | --- |
| COc1ccc(C(O)CN2CC=C(C3=NNC(=O)CS3)CC2)cc1 (stereo not drawn) [Compound 1, 2-[1-[2-Hydroxy-2-(4-methoxyphenyl)ethyl]-1,2,5,6-tetrahydropyrid-4-yl]-4H,6H-1,3,4-thiadiazin-5-one] | 87.6% | 55.7% |
| COc1cccc(C(O)CN2CC=C(C3=NNC(=O)CS3)CC2)c1 (stereo not drawn) [Compound 7, 2-[1-[2-Hydroxy-2-(3-methoxyphenyl)ethyl]-1,2,5,6-tetrahydropyrid-4-yl]-4H,6H-1,3,4-thiadiazin-5-one] | 95.2% | 54.0% |
| COc1ccc(OC)c(C(O)CN2CC=C(C3=NNC(=O)CS3)CC2)c1 (stereo not drawn) [Compound 8, 2-[1-[2-Hydroxy-2-(2,5-dimethoxyphenyl)ethyl]-1,2,5,6-tetrahydropyrid-4-yl]-4H,6H-1,3,4-thiadiazin-5-one] | 89% | 50.4% |
| O=C1CSC(C2=CCN(CC(O)c3cccc(Cl)c3)CC2)=NN1 (stereo not drawn) [Compound 12, 2-[1-[2-(3-Chlorophenyl)-2-hydroxyethyl]-1,2,5,6-tetrahydropyrid-4-yl]-4H,6H-1,3,4-thiadiazin-5-one] | 93.8% | 51.0% |
| O=C1CSC(C2=CCN(CC(O)c3ccc(Cl)cc3)CC2)=NN1 (stereo not drawn) [Compound 13, 2-[1-[2-(4-Chlorophenyl)-2-hydroxyethyl]-1,2,5,6-tetrahydropyrid-4-yl]-4H,6H-1,3,4-thiadiazin-5-one] | 93.4% | 72.2% |
| CC1SC(C2=CCN(CC(O)c3ccc(Cl)cc3)CC2)=NNC1=O (stereo not drawn) [Compound 14, 2-[1-[2-(4-Chlorophenyl)-2-hydroxyethyl]-1,2,5,6-tetrahydropyrid-4-yl]-6-methyl-4H,6H-1,3,4-thiadiazin-5-one] | 73.5% | 26.3% |
| O=C1CSC(C2=CCN(CC(O)c3ccc(Cl)cc3Cl)CC2)=NN1 (stereo not drawn) [Compound 17, 2-[1-[2-(2,4-Dichlorophenyl)-2-hydroxyethyl]-1,2,5,6-tetrahydropyrid-4-yl]-4H,6H-1,3,4-thiadiazin-5-one] | 85.8% | 45.0% |
| O=C1CSC(C2=CCN(CC(O)c3ccc(Cl)c(Cl)c3)CC2)=NN1 (stereo not drawn) [Compound 18, 2-[1-[2-(3,4-Dichlorophenyl)-2-hydroxyethyl]-1,2,5,6-tetrahydropyrid-4-yl]-4H,6H-1,3,4-thiadiazin-5-one] | 97.8% | 52.2% |
| Cc1cccc(C(O)CN2CC=C(C3=NNC(=O)CS3)CC2)c1 (stereo not drawn) [Compound 20, 2-[1-[2-Hydroxy-2-(3-methylphenyl)ethyl]-1,2,5,6-tetrahydropyrid-4-yl]-4H,6H-1,3,4-thiadiazin-5-one] | 87.5% | 65.7% |
| Cc1ccc(C(O)CN2CC=C(C3=NNC(=O)CS3)CC2)cc1 (stereo not drawn) [Compound 21, 2-[1-[2-Hydroxy-2-(4-methylphenyl)ethyl]-1,2,5,6-tetrahydropyrid-4-yl]-4H,6H-1,3,4-thiadiazin-5-one] | 84.5% | 92.6% |
| Cc1ccc(C(O)CN2CC=C(C3=NNC(=O)C(C)S3)CC2)cc1 (stereo not drawn) [Compound 22, 2-[1-[2-Hydroxy-2-(4-methylphenyl)ethyl]-1,2,5,6-tetrahydropyrid-4-yl]-6-methyl-4H,6H-1,3,4-thiadiazin-5-one] | 76.7% | 30.4% |
| Cc1ccc(C(O)CN2CC=C(C3=NNC(=O)CS3)CC2)c(C)c1 (stereo not drawn) [Compound 25, 2-[1-[2-Hydroxy-2-(2,4-dimethylphenyl)ethyl]-1,2,5,6-tetrahydropyrid-4-yl]-4H,6H-1,3,4-thiadiazin-5-one] | 65.2% | 58.5% |
| O=C1CSC(C2=CCN(CC(O)c3cccc(O)c3)CC2)=NN1 (stereo not drawn) [Compound 27, 2-[1-[2-Hydroxy-2-(3-hydroxyphenyl)ethyl]-1,2,5,6-tetrahydropyrid-4-yl]-4H,6H-1,3,4-thiadiazin-5-one] | 98.7% | 63.1% |
| O=C1CSC(C2=CCN(CC(O)c3ccccc3[N+](=O)[O-])CC2)=NN1 (stereo not drawn) [Compound 29, 2-[1-[2-Hydroxy-2-(2-nitrophenyl)ethyl]-1,2,5,6-tetrahydropyrid-4-yl]-4H,6H-1,3,4-thiadiazin-5-one] | 101% | 79.3% |
| O=C1CSC(C2=CCN(CC(O)c3cccc([N+](=O)[O-])c3)CC2)=NN1 (stereo not drawn) [Compound 30, 2-[1-[2-Hydroxy-2-(3-nitrophenyl)ethyl]-1,2,5,6-tetrahydropyrid-4-yl]-4H,6H-1,3,4-thiadiazin-5-one] | 100% | 113.9% |
| O=C1CSC(C2=CCN(CC(O)c3ccc([N+](=O)[O-])cc3)CC2)=NN1 (stereo not drawn) [Compound 31, 2-[1-[2-Hydroxy-2-(4-nitrophenyl)ethyl]-1,2,5,6-tetrahydropyrid-4-yl]-4H,6H-1,3,4-thiadiazin-5-one] | 90.4% | 74.7% |
| O=C1CSC(C2=CCN(CC(O)c3ccc4c(c3)OCO4)CC2)=NN1 (stereo not drawn) [Compound 32, 2-[1-[2-Hydroxy-2-[3,4-(methylenedioxy)phenyl]ethyl]-1,2,5,6-tetrahydropyrid-4-yl]-4H,6H-1,3,4-thiadiazin-5-one] | 93.1% | 63.9% |
| O=C1CSC(C2=CCN(CC(O)c3cccc(C(F)(F)F)c3)CC2)=NN1 (stereo not drawn) [Compound 34, 2-[1-[2-Hydroxy-2-[3-(trifluoromethyl)phenyl]ethyl]-1,2,5,6-tetrahydropyrid-4-yl]-4H,6H-1,3,4-thiadiazin-5-one] | 98.1% | 49.9% |
| O=C1CSC(C2=CCN(CC(O)c3ccc(F)cc3)CC2)=NN1 (stereo not drawn) [Compound 35, 2-[1-[2-(4-Fluorophenyl)-2-hydroxyethyl]-1,2,5,6-tetrahydropyrid-4-yl]-4H,6H-1,3,4-thiadiazin-5-one] | 90.7% | 63.5% |
| COc1ccc(C(O)CN2CC=C(C3=NNC(=O)SC3)CC2)cc1 (stereo not drawn) [Compound 39, 5-[1-[2-Hydroxy-2-(4-methoxyphenyl)ethyl]-1,2,5,6tetra-hydropyrid-4-yl]-3H,6H-1,3,4-thiadiazin-2-one] | 75.7% | 28.3% |
| O=C1NN=C(C2=CCN(CC(O)c3ccccc3)CC2)CS1 (stereo not drawn) [Compound 40, 5-[1-(2-Hydroxy-2-phenylethyl)-1,2,5,6-tetrahydropyrid-4-yl]-3H,6H-1,3,4-thiadiazin-2-one] | 98.1% | 35.3% |
| O=C1NN=C(C2=CCN(CC(O)c3ccc(Cl)cc3)CC2)CS1 (stereo not drawn) [Compound 42, 5-[1-[2-(4-Chlorophenyl)-2-hydroxyethyl]-1,2,5,6-tetrahydropyrid-4-yl]-3H,6H-1,3,4-thiadiazin-2-one] | 85.9% | 71.0% |
| Cc1ccc(C(O)CN2CC=C(C3=NNC(=O)SC3)CC2)cc1 (stereo not drawn) [Compound 43, 5-[1-[2-Hydroxy-2-(4-methylphenyl)ethyl]-1,2,5,6-tetrahydropyrid-4-yl]-3H,6H-1,3,4-thiadiazin-2-one] | 85.2% | 57.2% |
| O=C1NN=C(C2=CCN(CC(O)c3cccc(O)c3)CC2)CS1 (stereo not drawn) [Compound 44, 5-[1-[2-Hydroxy-2-(3-hydroxyphenyl)ethyl]-1,2,5,6-tetrahydropyrid-4-yl]-3H,6H-1,3,4-thiadiazin-2-one] | 101% | 39.9% |
| O=C1NN=C(C2=CCN(CC(O)c3ccc([N+](=O)[O-])cc3)CC2)CS1 (stereo not drawn) [Compound 45, 5-[1-[2-Hydroxy-2-(4-nitrophenyl)ethyl]-1,2,5,6-tetrahydropyrid-4-yl]-3H,6H-1,3,4-thiadiazin-2-one] | 79.1% | 99.5% |
| O=C1NN=C(C2=CCN(CC(O)c3ccc(F)cc3)CC2)CS1 (stereo not drawn) [Compound 46, 5-[1-[2-(4-Fluorophenyl)-2-hydroxyethyl]-1,2,5,6-tetrahydropyrid-4-yl]-3H,6H-1,3,4-thiadiazin-2-one] | 81.6% | 61.9% |
| N#Cc1ccc(C(O)CN2CC=C(C3=NNC(=O)SC3)CC2)cc1 (stereo not drawn) [Compound 47, 5-[1-[2-(4-Cyanophenyl)-2-hydroxyethyl]-1,2,5,6-tetrahydropyrid-4-yl]-3H,6H-1,3,4-thiadiazin-2-one] | 78.2% | 81.4% |
| O=C1NN=C(C2=CCN(CC(O)c3cccc(C(F)(F)F)c3)CC2)CS1 (stereo not drawn) [Compound 48, 5-[1-[2-Hydroxy-2-[3-(trifluoromethyl)phenyl]ethyl]-1,2,5,6-tetrahydropyrid-4-yl]-3H,6H-1,3,4-thiadiazin-2-one] | 77.7% | 45.4% |
| COc1ccc(C(O)CN2CC=C(C3=NNC(=O)CC3)CC2)cc1 (stereo not drawn) [Compound 49, 4,5-Dihydro-6-[1-[2-hydroxy-2-(4-methoxyphenyl)ethyl]-1,2,5,6-tetrahydropyrid-4-yl]pyridazin-3(2H)-one] | 87.6% | 27.7% |
| O=C1CCC(C2=CCN(CC(O)c3ccccc3Cl)CC2)=NN1 (stereo not drawn) [Compound 50, 6-[1-[2-(2-Chlorophenyl)-2-hydroxyethyl]-1,2,5,6-tetrahydropyrid-4-yl]-4,5-dihydropyridazin-3 (2H)-one] | 98.6% | 38.9% |
